# US20230183228A1, “SUBSTITUTED PYRAZOLYL COMPOUNDS AND METHODS OF USE THEREOF” (Chinook Therapeutics Canada, Inc., priority 2020, published 2023)
# Marks after values point to notes of the source that are not given here.
# What was measured:
# PH1 patients = details: cited from earlier work
# [1] = biological target: T1, human recombinant C-terminal His-tagged LDHA (Homo sapiens, UniProt P00338); assay: Human LDHA enzyme assay; assay type: biochemical; details: 50 μM pyruvate, 50 μM NADH, no HSA
# T1 construct: His (C)
# Description: (§1) Compounds were dissolved in DMSO and preincubated with human recombinant C-terminal His-tagged LDHA (0.070 μg/mL) for 10 min at room temperature in assay buffer consisting 50 mM Tris, pH 7.5 and 100 mM NaCl in black walled, clear bottom, non-binding 96-well plates. Equal volumes of substrate solution containing 100 μM of pyruvate and 100 μM of NADH in assay buffer was added to each well (final concentration 0.035 μg/mL enzyme, 50 μM pyruvate, 50 μM NADH, and 1% DMSO). For human serum albumin (HSA) shift assay, the compounds were preincubated with the enzyme in assay buffer containing 20% HSA before substrate addition (final concentration 10% HSA). The reaction was monitored at 340 nm on a plate reader (Molecular Devices) in kinetic mode for 15 min. The rate of the reaction was determined by plotting absorbance vs time.
# [2] = Liver and plasma concentrations in c57/bl6 mice; assay type: in vivo; details: 20 mg/kg PO, 4 h
# Description: [The procedure below names another organism; the source says it served here with some conditions changed.] Plasma and liver (target organ) concentrations of test compounds were determined in rats following a single per os (PO) administration of the test compounds. Male Sprague Dawley rats (6-8 weeks of age, Charles River Labs) were fasted overnight and a single dose of test compounds (10 mg/kg; as a suspension in 0.5% methyl cellulose) was administered by PO gavage. Rats were then sacrificed at 4 and 24 h after administration of the test compounds, and plasma and liver tissue samples were collected. Liver tissue samples were homogenized in 5 volumes of water:acetonitrile (50/50; v/v) mixture using a bead mill homogenizer. Plasma and liver homogenate samples were processed by protein precipitation using acetonitrile and the concentrations of the test compounds were determined by liquid chromatography-tandem mass spectrometry (SciEx triple quad 5500+ with Exion UPLC).
# Liver and plasma exposures at the 4 h and 24 h timepoints for the various compounds are described in Table 5 below. Measured compound concentrations are as follows: ++++>10 μM; 10 μM≥+++>5 μM; 5 μM≥++>1 μM; 1 μM≥+>0.25 μM; and 0.25 μM≥−.
# [3] = tested on: fresh primary mouse hepatocytes; assay: Primary mouse hepatocyte assay (lactate production); assay type: cell-based; details: Run at 0.4M cells/well concentration of hepatocytes
# Description: Compounds were evaluated in an ex vivo assay consisting of fresh primary mouse hepatocytes. Hepatocytes were isolated from wild type mice (C57BL/6NCrl from Charles River Labs) using a two-step collagenase perfusion technique which involves a sequential perfusion of anesthetized mice with Hanks' balanced salt solution and collagenase. Following isolation, viable wild type hepatocytes (0.1 M cells/well) were incubated with test compound in presence of pyruvate and compound potency was evaluated by measuring the lactate produced by the cells using liquid chromatography coupled to mass spectrometry. Chromatographic separation was achieved on an XDB-C18 4.6×50 mm column (Agilent, Cat #927975-902) at a flow rate of 1 mL/min Mobile phase A consisted of 0.1% formic acid in water and mobile phase B consisted of acetonitrile. A gradient program was initiated starting at 5% B which was held for 1 minutes, then ramped from 5% to 95% B over 1 minute. After holding at 95% B for 1 minute, the program changed back to 5% B. The column was equilibrated with 5% B for […] before the next injection. The mass spectrometer was operated in negative mode with electrospray ionization. The following transition along with their collision energy (CE) were used: 89→43 (CE: −16 V) for lactate and 92→45 (CE: −16 V) for ^13C3-Lactate (internal standard).
# [4] = biological target: T1, human recombinant C-terminal His-tagged LDHA; assay: Human LDHA enzyme assay, human serum albumin (HSA) shift; assay type: biochemical; details: final concentration 10% HSA
# Description: as §1
IC50 [1],Measured Compound Concentrations Liver - 4 h ([2]; liver),Measured Compound Concentrations Plasma - 4 h ([2]; plasma),IC50 [4],Compound,lowering of urinary oxalate (PH1 patients),IC50 [3]
–,–,–,–,Cc1ncc(CO)c(CO)c1O [Pyridoxine],approximately 30%,–
< 1 nM,++* (5 μM≥++>1 μM),−* (0.25 μM≥−),1 to 10 nM,"CC(C)Oc1cc(-c2nn(-c3nc(C(=O)O)cs3)c(CC3CC3)c2Cc2ccc(S(N)(=O)=O)c(F)c2)ccc1F [Example 7, 2-(5-(Cyclopropylmethyl)-3-(4-fluoro-3-isopropoxyphenyl)-4-(3-fluoro-4-sulfamoylbenzyl)-1H-pyrazol-1-yl)thiazole-4-carboxylic acid]",–,250 to 1000 nM
